# From patent US10272110B2, “Methods for promoting HSC engraftment” (CHILDREN'S MEDICAL CENTER CORPORATION, priority 2006, dated 2019)
# Legend:
# runx1/cmyb+ AGM HSCs [1] = conditions: 10 μM
# Experimental: A chemical genetic screen was conducted to identify novel pathways that modulate definitive HSC formation during zebrafish embryogenesis. FIG. 1. Genes such as runx1 and cmyb, required for HSC development during mammalian hematopoiesis, are expressed in the ventral wall of the dorsal aorta in a region analogous to the mammalian AGM at thirty-six hours post-fertilization (hpf). […] Wild-type embryos were incubated with individual compounds from the three-somite stage until thirty-six hpf. Probes for runx1 and cmyb were combined and utilized to detect HSCs by in situ hybridization.
# Wild-type age-matched embryos were arrayed into 48-well plates (˜5 embryos/well) of individual test compounds and exposed from 3-somites until 36 hpf. […] In situ hybridization for runx1 and cmyb was performed to assess HSCs. Compounds were retested at 10 μM, 20 μM, and 50 μM. Stem cell specificity was assessed using flk1 at 36 hpf. PGE2, PGI2, dmPGE2 and all cox inhibitors (Sigma) were used at 10 μM to 20 μM.
# Qualitative scoring (# embryos with altered HSCs/# scored) of runx1/cmyb was conducted using the following criteria: Normal/unchanged=continuous line of runx1/cmyb+ endothelial cells and occasional hematopoietic clusters. Decreased/absent=reduction in runx1/cmyb+ cells, including the presence of large gaps in the line of HSCs, isolated positive cells, or absence of expression. Increased/excess=enhancement in runx1/cmyb^+ cells, including many HSC clusters, a thickened line of HSCs, or ectopic expression.
# vasculature (flk1) = conditions: zebrafish embryos, 36 hpf
# Experimental: Wild-type age-matched embryos were arrayed into 48-well plates (˜5 embryos/well) of individual test compounds and exposed from 3-somites until 36 hpf. Three compound libraries were utilized: NINDS Custom Collection (1040), SpecPlus Collection (960) and BIOMOL ICCB Known Bioactives (480). […] In situ hybridization for runx1 and cmyb was performed to assess HSCs. Compounds were retested at 10 μM, 20 μM, and 50 μM. Stem cell specificity was assessed using flk1 at 36 hpf. PGE2, PGI2, dmPGE2 and all cox inhibitors (Sigma) were used at 10 μM to 20 μM.
# cmyb/lmo2+ HSCs = test: Confocal quantification of HSCs in cmyb:GFP x lmo2:dsRed bigenic embryos; assay type: in vivo, zebrafish
# Experimental: A long-acting derivative, 16,16-dimethyl-PGE2 (dmPGE2, 10 μM) caused an increase in runx1/cmyb+ AGM HSCs in 78% of embryos examined (97/124). AGM HSCs were inhibited by indomethacin (10 μM) treatment in 90% of embryos analyzed (92/102). […] Transgenic cmyb:GFP zebrafish with green fluorescent HSCs and myeloid progenitor cells were crossed to lmo2:dsRed fish that have red fluorescent endothelial cells and HSCs to visualize the effects of chemical exposure in vivo. […] FIG. 3.
# Live 36 hpf treated bigenic zebrafish embryos were embedded in 1% low-melting point agarose containing 0.4 mg/ml Tricaine-S for confocal imaging. cmyb-GFP transgenic reporter lines were created from a BAC containing the cmyb promoter genomic sequence (Galloway, Zhu, Lin, Zon, unpublished); lmo2:DsRed fish were created as described^27. For HSC quantification, cmyb/lmo2+ positive cells were counted in projections of z-stack images (n=10/treatment).
# runx1, cmyb expression = test: qPCR of HSC gene expression in treated zebrafish embryos; assay type: in vivo
# runx1/cmyb+ AGM HSCs [2] = test: Morpholino knockdown and dmPGE2 rescue of AGM HSCs; assay type: in vivo, zebrafish
# Experimental: PGE2 signals through several receptors, EP1-4, all of which are present in the zebrafish genome. Cha et al., 20 Genet. Devel.
# For rescue experiments, 3-somite stage MO-injected embryos were exposed to 10 μM dmPGE2.
# mouse ES cells = test: ES cell hematopoietic differentiation assays (M3434 methylcellulose and OP9 colony assays); assay type: cell-based
# Experimental: ES cell hematopoietic differentiation assays were performed as previously described. […] M3434 methylcellulose colony forming and OP9 colony assays were conducted on day 6 and analyzed at […], respectively. Colony type was identified by morphological analysis; duplicate chemical exposures were averaged to determine the reported colony number (n=3 replicates minimum).
# WBM cells = test: Homing of CDFA-labeled WBM to the BM niche; assay type: in vivo, mouse; conditions: twelve hours post-transplantation, p=0.83
# wnt activity [3] = test: wnt reporter TOP:dGFP zebrafish embryos; assay type: in vivo; conditions: vs control
# Source text: Clinical experience in patients with APC mutations has shown that inhibition of prostaglandin synthesis results in decreased wnt mediated polyp formation. […] These interactions were examined in vivo using a wnt reporter zebrafish transgenic line, TOP:dGFP. At fifty-percent epiboly, embryos were subjected either to nothing (control), indomethacin, or PGE2, and the amount of wnt signaling activated in the embryo assessed by GFP induction driven from the wnt binding site. Analysis of alterations in GFP expression in the head was analyzed by in situ hybridization. […] FIG. 12.
# wnt activity [4] = test: wnt activity in kidney marrow of irradiated Top:dGFP adults; assay type: in vivo, zebrafish; conditions: day three post irradiation
# Experimental: To determine if prostaglandin pathway manipulation can alter wnt activity in the kidney marrow repopulation in the adult, the effects of dmPGE2 and indomethacan was examined further in Top:dGFP lines. […] FIG. 14. To discern whether modulation of prostaglandin signaling can modify the wnt mediated effects on kidney marrow recovery following irradiation, wnt genes were activated by heat shock at 38° C. at two days post irradiation and then. exposure to prostaglandin pathway drugs at one day post heat shock. The hs:wnt8-GFP fish were exposed to indomethacin, while the dkk1, axin, and dnTCF transgenic fish were exposed to dmPGE2. Whole kidney marrow was analyzed by FACS on day ten post-irradiation.
compound,measurement,setting,value
"CCCCC(C)(C)[C@H](O)/C=C/[C@H]1[C@H](O)CC(=O)[C@@H]1C/C=C\CCCC(=O)O [dmPGE2, 16,16-dimethyl-PGE2]",embryos with increase in runx1/cmyb+ AGM HSCs,runx1/cmyb+ AGM HSCs [1],78%
same,increased runx1/cmyb+ HSCs (# embryos altered/# scored),runx1/cmyb+ AGM HSCs [1]; 36 hpf,97/124
same,effect on vasculature / flk1 staining (in words),vasculature (flk1),minimal effects on the vasculature
same,HSC numbers by confocal microscopy (mean±SD),"cmyb/lmo2+ HSCs; 10 μM, bigenic embryos, n=10/treatment, DMSO 23.3±5.0",38.0±2.2
same,HSC numbers along the floor of the aorta by confocal microscopy (in words),cmyb/lmo2+ HSCs; 36 hpf live embryos,significantly increased HSCs
same,cmyb expression by qPCR (in words),"runx1, cmyb expression; 10 μM",significant alterations
same,"runx1 expression by qPCR, enhancement","runx1, cmyb expression; dmPGE2 10 μM",3 fold
same,rescue of HSCs in cox1 MO embryos (# rescued/# scored),runx1/cmyb+ AGM HSCs [2]; 10 μM dmPGE2,29/52
same,rescue of HSCs in cox2 MO embryos (# rescued/# scored),runx1/cmyb+ AGM HSCs [2]; 10 μM dmPGE2,43/60
same,rescue of HSCs in PGE2 synthase MO embryos (# rescued/# scored),runx1/cmyb+ AGM HSCs [2]; dmPGE2 addition,25/45
same,reversal of diminished runx1/cmyb expression in EP2 and EP4 MO embryos,runx1/cmyb+ AGM HSCs [2]; exogenous dmPGE2,not reversed
same,"OP9, definitive erythroid (dE) and granulocyte/monocyte (GM) colonies",mouse ES cells; 10 μM and 20 μM,increased in a dose-dependent manner
same,toxicity to ES cells,mouse ES cells; 100 μM,toxic
same,"number of multipotent GEMM colonies, enhancement","mouse ES cells; dmPGE2 10 μM, 20 μM, methylcellulose",2.9 fold
same,rescue of indomethacin inhibition of colony formation,"mouse ES cells; dmPGE2 10 μM, indomethacin 100 μM, methylcellulose and OP9",rescued
same,homing to the BM niche vs control,WBM cells,no significant difference
same,wnt activity (GFP expression) in TOP:dGFP embryos,wnt activity [3],enhance wnt signaling
same,wnt activity (GFP) in kidney marrow of Top:dGFP adults,wnt activity [4],significantly enhanced wnt activity
